The values that follow come from US11479546B2, “Antimalarial hexahydropyrimidine analogues” (UCB Biopharma SRL, priority 2018, dated 2022).

The test system of the assay is Plasmodium falciparum 3D7. The assay is described as follows: P. falciparum 3D7 asexual blood stage assay, Assay Procedure Version 2 (SYBR green readout). It is filed as cell-based. The settings on record: Plasmodium falciparum, 3D7, Erythrocyte, 72 h, Version 2 of the assay procedure (asterisk *); 72 h incubation in infected erythrocytes; 50,000 nM to 15 nM. A digest of the protocol:
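Parasite growth read as DNA fluorescence (SYBR green lysis overnight, ex 485/em 528 nm) after 72 h drug exposure of 3D7-infected erythrocytes at 0.5% parasitaemia, 5% haematocrit, 37 °C under 1% O2/3% CO2. Compounds tested 15–50,000 nM final, 0.5% DMSO; normalised to mefloquine (100%) and DMSO (0%), biphasic two-site EC50 fitting.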
The term IC50 denotes the concentration that inhibits the measured activity by half. Low readings indicate greater potency, high ones weaker potency. As to `C[C@@]1(c2cccc(Nc3cc4ccccc4nc3OC(F)F)c2Cl)CC(=O)N(C2CCOCC2)C(=N)N1` [Example 98, (6S)-6-(2-Chloro-3-{[2-(difluoromethoxy)quinolin-3-yl]amino}phenyl)-2-imino-6-methyl-3-(tetrahydropyran-4-yl)hexahydropyrimidin-4-one], half-maximal inhibition (IC50) required 224 nM. In the case of `CC(C)Oc1cccc(Nc2cccc([C@]3(C)CC(=O)N(C4CCOCC4)C(=N)N3)c2Cl)c1` [Example 74, (6S)-6-[2-Chloro-3-(3-isopropoxyanilino)phenyl]-2-imino-6-methyl-3-(tetrahydro-pyran-4-yl)hexahydropyrimidin-4-one] it was 1290 nM; in that of `C[C@@]1(c2cccc(Nc3ccc4ncnn4c3)c2Cl)CC(=O)N(C2CCOCC2)C(=N)N1` [Example 85, (6S)-6-[2-Chloro-3-([1,2,4]-triazolo[1,5-a]pyridin-6-yl-amino)phenyl]-2-imino-6-methyl-3-(tetrahydropyran-4-yl)hexahydropyrimidin-4-one], 1790 nM. The result for `C[C@@]1(c2cccc(Nc3ccc(Cl)cn3)c2Cl)CC(=O)N(C2CCOCC2)C(=N)N1` [Example 182, (6S)-6-{2-Chloro-3-[(5-chloro-pyridin-2-yl)amino]phenyl}-2-imino-6-methyl-3-(tetrahydro-yran-4-yl)-hexahydropyrimidin-4-one] reads 466 nM; that for `C[C@@]1(c2cccc(Nc3ncccc3OC(F)F)c2Cl)CC(=O)N(C2CCOCC2)C(=N)N1` [Example 102, (6S)-6-(2-Chloro-3-{[3-(difluoromethoxy)pyridin-2-yl]-amino}phenyl)-2-imino-6-methyl-3-(tetrahydropyran-4-yl)hexahydropyrimidin-4-one], 193 nM; that for `C[C@@]1(c2cccc(Nc3ccn4nccc4c3)c2Cl)CC(=O)N(C2CCOCC2)C(=N)N1` [Example 91, (6S)-6-[2-Chloro-3-(pyrazolo-[1,5-a]pyridin-5-ylamino)-phenyl]-2-imino-6-methyl-3-(tetrahydropyran-4-yl)-hexahydropyrimidin-4-one], 896 nM. On to `C[C@@H]1C[C@@H](N2C(=N)N[C@](C)(c3cccc(Nc4ccc(OC(F)F)nc4)c3Cl)CC2=O)CCO1` (single isomer, unassigned; peak 1) [Example 191, (6S)-6-(2-Chloro-3-{[6-(difluoromethoxy)pyridin-3-yl]-amino}phenyl)-2-imino-6-methyl-3-[(2R*,4S*)-2-methyl-tetrahydropyran-4-yl]-hexahydropyrimidin-4-one (Peak 1)], for which the IC50 is 363 nM. The result for `Cc1ccc(Nc2cccc([C@]3(C)CC(=O)N([C@H]4C[C@@](C)(O)C4)C(=N)N3)c2Cl)cn1` [Example 125, (6S)-6-{2-Chloro-3-[(6-methyl-pyridin-3-yl)amino]phenyl}-3-(3-hydroxy-3-methylcyclo-butyl)-2-imino-6-methyl-hexahydropyrimidin-4-one] reads 1100 nM.

With `CN1CCOc2cc(Nc3cccc([C@]4(C)CC(=O)N(C5CCOCC5)C(=N)N4)c3Cl)ccc21` [Example 86, (6S)-6-{2-Chloro-3-[(4-methyl-2,3-dihydro-1,4-benzoxazin-7-yl)amino]phenyl}-2-imino-6-methyl-3-(tetrahydropyran-4-yl)hexahydropyrimidin-4-one], inhibition was half-maximal at 658 nM (IC50). The result for `C[C@@]1(c2cccc(Nc3ccc(C4CC4)nn3)c2Cl)CC(=O)N(C2CCOCC2)C(=N)N1` [Example 197, (6S)-6-{2-Chloro-3-[(6-cyclo-propylpyridazin-3-yl)amino]-phenyl}-2-imino-6-methyl-3-(tetrahydropyran-4-yl)-hexahydropyrimidin-4-one] reads 536 nM; that for `C[C@@]1(c2cccc(Nc3ccc(-n4cncn4)nc3)c2Cl)CC(=O)N(C2CCOCC2)C(=N)N1` [Example 114, (6S)-6-(2-Chloro-3-{[6-(1,2,4-triazol-1-yl)pyridin-3-yl]-amino}phenyl)-2-imino-6-methyl-3-(tetrahydropyran-4-yl)hexahydropyrimidin-4-one], 519 nM; that for `C[C@@]1(c2cccc(Nc3ccc(Cl)nc3)c2Cl)CC(=O)N(C2CCOCC2)C(=N)N1` [Example 60, (6S)-6-{2-Chloro-3-[(6-chloro-pyridin-3-yl)amino]phenyl}-2-imino-6-methyl-3-(tetrahydro-pyran-4-yl)hexahydropyrimidin-4-one], 269 nM. The result for `C[C@@]1(c2cccc(Nc3cnccc3C(F)(F)F)c2Cl)CC(=O)N(C2CCOCC2)C(=N)N1` [Example 56, (6S)-6-(2-Chloro-3-{[4-(trifluoromethyl)pyridin-3-yl]-amino}phenyl)-2-imino-6-methyl-3-(tetrahydropyran-4-yl)hexahydropyrimidin-4-one] reads 253 nM. `Cn1cc2cc(Nc3cccc([C@]4(C)CC(=O)N(C5CCOCC5)C(=N)N4)c3Cl)ccc2n1` [Example 78, (6S)-6-{2-Chloro-3-[(2-methyl-indazol-5-yl)amino]phenyl}-2-imino-6-methyl-3-(tetrahydro-pyran-4-yl)hexahydropyrimidin-4-one] yielded an IC50 of 1420 nM. Compound `Cc1ccc(Nc2cccc([C@]3(C)CC(=O)N(C4CCOCC4)C(=N)N3)c2Cl)c(OC(F)F)n1` [Example 94, (6S)-6-(2-Chloro-3-{[2-(difluoromethoxy)-6-methyl-pyridin-3-yl]amino}phenyl)-2-imino-6-methyl-3-(tetrahydro-pyran-4-yl)hexahydropyrimidin-4-one] registered an IC50 of 34 nM. In the case of `C[C@@]1(c2cccc(Nc3cnc(OC(F)F)c4ccccc34)c2Cl)CC(=O)N(C2CCOCC2)C(=N)N1` [Example 95, (6S)-6-(2-Chloro-3-{[1-(difluoromethoxy)isoquinolin-4-yl]amino}phenyl)-2-imino-6-methyl-3-(tetrahydropyran-4-yl)hexahydropyrimidin-4-one] it was 456 nM.

`C[C@@]1(c2cccc(Nc3ccc4c(c3)OCO4)c2Cl)CC(=O)N(C2CCOCC2)C(=N)N1` [Example 59, (6S)-6-[3-(1,3-Benzodioxol-5-ylamino)-2-chlorophenyl]-2-imino-6-methyl-3-(tetrahydro-pyran-4-yl)hexahydropyrimidin-4-one] had a half-maximal inhibitory concentration (IC50) of 365 nM. Take `C[C@@]1(c2cccc(Nc3ccc(Cl)cc3)c2Cl)CC(=O)N([C@H]2C[C@@](C)(O)C2)C(=N)N1` [Example 176, (6S)-6-[2-Chloro-3-(4-chloro-anilino)phenyl]-3-(3-hydroxy-3-methylcyclobutyl)-2-imino-6-methylhexahydropyrimidin-4-one]: half-maximal inhibition (IC50) required 460 nM. The result for `C[C@@]1(c2cccc(Nc3ccc(F)cc3S(C)(=O)=O)c2Cl)CC(=O)N(C2CCOCC2)C(=N)N1` [Example 104, (6S)-6-{2-Chloro-3-[4-fluoro-2-(methylsulfonyl)anilino]-phenyl}-2-imino-6-methyl-3-(tetrahydropyran-4-yl)-hexahydropyrimidin-4-one] reads 131 nM; that for `Cc1ccc(Nc2cccc([C@]3(C)CC(=O)N(C4CCOCC4)C(=N)N3)c2Cl)c(C#N)n1` [Example 88, 3-{2-Chloro-3-[(4S)-2-imino-4-methyl-6-oxo-1-(tetrahydro-pyran-4-yl)hexahydropyrimidin-4-yl]anilino}-6-methylpyridine-2-carbonitrile], 532 nM.
